Experimental findings from PMC3193285 (ACS Medicinal Chemistry Letters, 2011) are described below.

The structures appear in SMILES notation. Values after ≈ are worked out from the molar mass of the structure shown. Where two headings read alike, the source gives them in different places. A value given as a limit tells only on which side of the number the result lay.

One data set has as its system TNF-α. Briefly: TNF-α-induced NF-κB activation luciferase reporter counterscreen. Particulars: Homo sapiens. In kind it is cell-based.
For another data set, the system named is 443 kinases. Briefly: Ambit KinomeScreen panel. Particulars: 10 μM.
A short description of data set [1]: Metabolic stability in human hepatic microsomes. Particulars: percent remaining at 1 h. Format: in vitro ADME.
The nature of data set [2]: Aqueous kinetic solubility. The note with it: aqueous solution, pH 6.2. Format: physicochemical.
Data set [3] in a line: Plasma stability, mouse plasma. Format: in vitro ADME. Particulars: Plasma/PBS, compound at 1 μM, 3 h.
For data set [4], the target named is T1, CFLT3 (Fms-like tyrosine kinase) (Homo sapiens, UniProt P36888).
T1 sequence (P36888 27-993): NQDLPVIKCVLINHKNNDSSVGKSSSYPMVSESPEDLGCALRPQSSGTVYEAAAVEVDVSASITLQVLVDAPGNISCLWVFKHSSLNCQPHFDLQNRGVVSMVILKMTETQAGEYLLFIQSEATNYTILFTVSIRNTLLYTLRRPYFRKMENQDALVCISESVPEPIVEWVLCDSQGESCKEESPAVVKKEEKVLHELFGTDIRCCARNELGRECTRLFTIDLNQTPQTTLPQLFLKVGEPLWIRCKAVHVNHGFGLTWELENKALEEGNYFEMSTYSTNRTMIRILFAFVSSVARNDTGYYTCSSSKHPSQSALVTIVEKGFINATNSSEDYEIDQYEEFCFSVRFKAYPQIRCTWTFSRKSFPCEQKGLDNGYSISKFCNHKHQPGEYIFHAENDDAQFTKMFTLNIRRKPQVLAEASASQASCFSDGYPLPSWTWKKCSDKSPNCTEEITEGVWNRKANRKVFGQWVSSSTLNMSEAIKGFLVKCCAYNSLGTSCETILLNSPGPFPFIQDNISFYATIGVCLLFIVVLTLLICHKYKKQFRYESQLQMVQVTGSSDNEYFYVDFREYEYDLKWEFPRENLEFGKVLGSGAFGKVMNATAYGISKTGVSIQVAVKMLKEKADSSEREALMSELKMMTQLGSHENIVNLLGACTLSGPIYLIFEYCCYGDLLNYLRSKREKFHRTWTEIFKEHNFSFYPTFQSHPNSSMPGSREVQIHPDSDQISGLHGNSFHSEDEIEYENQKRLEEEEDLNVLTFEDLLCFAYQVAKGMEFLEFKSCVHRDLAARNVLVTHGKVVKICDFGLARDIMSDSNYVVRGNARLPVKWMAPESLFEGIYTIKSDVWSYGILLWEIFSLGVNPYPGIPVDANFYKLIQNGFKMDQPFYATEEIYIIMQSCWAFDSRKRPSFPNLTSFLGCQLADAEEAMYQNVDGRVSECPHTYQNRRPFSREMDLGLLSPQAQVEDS
In words: Ambit KinomeScreen, FLT3. The note with it: 10 μM.

Data set [5] in a line: Metabolic stability in mouse hepatic microsomes. In kind it is in vitro ADME. Particulars: percent remaining at 1 h.
A short description of data set [6]: Plasma protein binding, human plasma. In kind it is in vitro ADME.
Data set [7] relates to NF-κB activation via doxorubicin-induced pathway. In words: NF-κB selectivity assay, HEK 293-T cells, doxorubicin induction. Format: cell-based, human.
Data set [8] has as its system NCI 60 human tumor cell line.
The nature of data set [9]: Plasma protein binding, mouse plasma. Format: in vitro ADME.
Data set [10] addresses RIOK2 (right open reading frame) (Homo sapiens, UniProt Q9BVS4). Briefly: Ambit KinomeScreen, RIOK2. Particulars: 10 μM.
The subject of data set [11] is NF-κB activation via PMA/ionomycin. Briefly: NF-κB selectivity assay, HEK 293-T cells, PMA/ionomycin induction. Format: cell-based, human.
The nature of data set [12]: Plasma stability, human plasma. In kind it is in vitro ADME. The note with it: Plasma/PBS, compound at 1 μM, 3 h.
Setting [13] is: read-out: TNF-α (NOD1-dependent) IC50.

RIOK2 (right open reading frame), sequence (Q9BVS4 whole entry, species assumed): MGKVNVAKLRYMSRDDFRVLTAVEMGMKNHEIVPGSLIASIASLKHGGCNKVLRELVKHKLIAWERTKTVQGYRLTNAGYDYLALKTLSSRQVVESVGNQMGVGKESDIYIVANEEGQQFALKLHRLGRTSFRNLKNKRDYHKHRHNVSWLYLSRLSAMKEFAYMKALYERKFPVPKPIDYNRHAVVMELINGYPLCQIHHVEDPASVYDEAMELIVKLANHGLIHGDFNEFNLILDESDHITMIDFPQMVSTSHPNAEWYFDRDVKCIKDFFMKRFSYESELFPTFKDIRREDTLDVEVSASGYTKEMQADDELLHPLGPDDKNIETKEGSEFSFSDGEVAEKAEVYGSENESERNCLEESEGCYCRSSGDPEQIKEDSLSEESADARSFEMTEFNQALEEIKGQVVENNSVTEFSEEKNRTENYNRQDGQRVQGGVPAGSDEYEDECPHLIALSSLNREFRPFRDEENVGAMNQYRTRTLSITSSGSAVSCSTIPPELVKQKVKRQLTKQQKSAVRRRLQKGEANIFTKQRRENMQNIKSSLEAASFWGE

`Nc1nc2ccccc2n1S(=O)(=O)c1ccccc1` [4c]: the IC50 (in general, the concentration needed to halve the response being measured) in the data set with TNF-α (setting [13]) is greater than 20 µM. Regarding `O=C(C1CC1)N1CCc2cc(S(=O)(=O)N3CCN(c4ccc([N+](=O)[O-])cc4)CC3)ccc21` [21a], the IC50 in the data set with TNF-α (read-out: TNF-α IC50) was greater than 20 µM. In the case of `Cc1ccc(S(=O)(=O)n2c(N)nc3cc(C)c(C)cc32)cc1` [9c], the IC50 in the data set on TNF-α (setting [13]) was greater than 20 µM. Regarding `CC(=O)N1CCc2cc(S(=O)(=O)N3CCN(c4ccc([N+](=O)[O-])cc4)CC3)ccc21` [26a], the IC50 with TNF-α (read-out: TNF-α IC50) is greater than 20 µM. For `Nc1nc2ccccc2n1Cc1ccc(Cl)cc1` [10c], the IC50 in the data set on TNF-α (setting [13]) is greater than 20 µM. For the molecule `O=C(C1CC1)N1CCc2cc(S(=O)(=O)N3CCN(c4ccc(Cl)cc4)CC3)ccc21` [18a], the half-maximal inhibitory concentration (IC50) with TNF-α (read-out: TNF-α IC50) was greater than 20 µM. For the molecule `Cc1ccc(S(=O)(=O)n2cnc3ccccc32)cc1` [6c], in the data set with TNF-α (setting [13]), the IC50 was greater than 20 µM. With `CC(=O)c1ccc(N2CCN(S(=O)(=O)c3ccc4c(c3)CCN4C(C)=O)CC2)cc1` [25a], the IC50 in the data set on TNF-α (read-out: TNF-α IC50) was greater than 20 µM. On to `Nc1nc2ccccc2n1CCC(=O)c1ccc(Cl)cc1` [13c], for which the IC50 in the data set with TNF-α (setting [13]) is greater than 20 µM. Take `CC(=O)c1ccc(N2CCN(S(=O)(=O)c3ccc4c(c3)CC(C)N4C(=O)C3CC3)CC2)cc1` (stereo not shown) [7a]: the IC50 in the data set on TNF-α (read-out: TNF-α IC50) is greater than 20 µM. As for `Cc1ccc(S(=O)(=O)n2c(S)nc3ccc(C)cc32)cc1` [8c], the IC50 in the data set on TNF-α (setting [13]) is greater than 20 µM. On to `Cc1ccc(S(=O)(=O)n2c(N)nc3ccccc32)cc1` [1c], for which the “activity against 443 kinases” value in the data set on 443 kinases is given as “little activity”. For the same molecule, the microsome stability in data set [1] came out at 41.8 % remaining; in data set [5], 0.8 % remaining. In [2], the solubility (usually the dissolved amount per volume that the medium holds) at 18 h came to 2 µg/mL (≈ 6.96 µM). Also, the plasma stability in [3] and in data set [12] was 100/100 % remaining in each case. In addition, in the data set with TNF-α (setting [13]), the 50% inhibitory concentration (IC50) was greater than 20 µM. Further, in data set [4], the “Inhibitory activity (reported as % control), CFLT3” value turned out to be 27 % C. Further, the plasma protein binding in [6] (1 μM) is reported as 97.5 % bound; in [6] (10 μM), 97.7 % bound; in data set [9] (1 μM), 95.0 % bound; in data set [9] (10 μM), 95.5 % bound. Further, the “inhibition of NF-κB activation via doxorubicin-induced pathway” value in data set [7] was “did not inhibit”. Moreover, in [8], the “cytotoxicity in NCI 60 screen” value is given as “noncytotoxic”. For the same molecule, the “Inhibitory activity (reported as % control), RIOK2” value in [10] amounted to 6 % C. The “inhibition of NF-κB activation via PMA/ionomycin” value in data set [11] was “did not inhibit”. Take `COc1ccc(C(=O)Cn2c(N)nc3ccccc32)cc1` [14c]: the IC50 with TNF-α (setting [13]) was greater than 20 µM. `CC(=O)N1CCc2cc(S(=O)(=O)N3CCN(c4ccc(Cl)cc4)CC3)ccc21` [27a]: the IC50 in the data set on TNF-α (read-out: TNF-α IC50) was greater than 20 µM. The same measure, in the same setting: with `CCC(=O)N1CCc2cc(S(=O)(=O)N3CCN(c4ccc(C(C)=O)cc4)CC3)ccc21` [22a] the figure was greater than 20 µM.

Turning to `Nc1nc2ccccc2n1C(=O)Cc1ccccc1` [15c], the half-maximal inhibitory concentration (IC50) in the data set with TNF-α (setting [13]) was greater than 20 µM. `CCC(=O)N1CCc2cc(S(=O)(=O)N3CCN(c4ccc([N+](=O)[O-])cc4)CC3)ccc21` [23a]: the IC50 with TNF-α (read-out: TNF-α IC50) is greater than 20 µM.

In the case of `CC(=O)c1ccc(N2CCN(S(=O)(=O)c3ccc4c(c3)CCN4C(=O)C3CC3)CC2)cc1` [20a], in the data set with TNF-α (read-out: TNF-α IC50), the IC50 is greater than 20 µM. In the case of `N#Cc1ccc(N2CCN(S(=O)(=O)c3ccc4c(c3)CCN4C(=O)C3CC3)CC2)cc1` [19a], in the data set with TNF-α (read-out: TNF-α IC50), the IC50 is greater than 20 µM.
